Each structure is given as a SMILES string.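 Dose response: 5 concentrations. Exposure: 48 h. Format: 96-well plates. Endpoint: linear interpolation; highest concentration if not reached. GI50 marks 50% less growth. TGI marks complete inhibition of growth.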 Where only a bound is given, the exact number is not on record here.

For one assay, the system named is HL-60(TB) leukemia. Description: NCI anticancer screen, dose series, 48 h.
For the molecule `O=c1[nH]/c(=C/c2ccc(OCc3ccccc3)cn2)c(=O)[nH]/c1=C/c1ccc(O)cc1`, the TGI amounted to 2.87 µM.

For the molecule `N#C/C(=C\n1ccc(=O)[nH]c1=S)C(N)=O`, the TGI was over 100 µM.

In turn, `O=C(OCC1OC2OC(c3ccccc3)(n3ccc4c([N+](=O)[O-])ccnc43)OC2C1OC(=O)c1ccccc1)c1ccccc1` (configuration not stated) came in with a TGI of over 100 µM.

In the case of `Cc1[nH]c(=O)[nH]c(=O)c1/C=C/C(=O)O`, the TGI is over 1000 µM.

Regarding `C[C@]12CCc3nc(Nc4ccccc4)sc3C1=CC[C@@H]1[C@@H]2CC[C@]2(C)/C(=N/NC(N)=S)CC[C@@H]12`, the GI50 was 3.03 µM and the TGI was found to be 17 µM.

As to `CN(NC(=O)c1cccs1)C1=NCCCN1`, the TGI was over 100 µM.

Molecule `Nc1ccc2[nH]c3c(-c4ccccc4)nccc3c2c1` showed a TGI of 38.2 µM.

Take `Cc1ccc2nc(Cl)c(/C=N/N3C(=O)/C(=C/c4ccccc4S)N=C3c3ccccc3)cc2c1`: the TGI was 61.6 µM.

In turn, `COC(=O)C1=C(C(=O)OC)SC2(S1)C1=C(CCCC1)SC(C(=O)OC)=C2C(=O)OC` gave a TGI of over 100 µM.

`CC1Cn2c(nc3ccccc32)NC1=O` (configuration not stated) yielded a TGI of over 100 µM.

The test system of a further assay is 786-0 renal. Description: NCI anticancer screen, dose series, 48 h.
As to `CCC1(C(=O)OC(C)(C)C)OC12C(C)CCCC2C` (configuration not stated), the TGI was over 100 µM.

On to `Cc1ccc(-c2cc(N)n(-c3nc4c(c(=O)n(C)c(=O)n4C)n3C)n2)cc1`, for which the TGI is over 100 µM.

With `CC1CCOc2ccc(cc2)C=Nc2ccc(cc2)CCc2ccc(cc2)N=Cc2ccc(cc2)OCC1` (configuration not stated), the TGI is over 100 µM.

The molecule `COC(=O)[C@H](Cc1ccccc1)NC(=O)[C@H](Cc1ccccc1)NC(=O)[C@@H]1CCCN1C(=O)N[C@H]1C2C=CC(C2)C1C(=O)N1CCC[C@H]1C(=O)N[C@@H](C)C(=O)N[C@H](C(=O)OC)C(C)C` (some centres not stated) gave a TGI of over 100 µM.

As to `O=C1c2ccccc2-c2nc(-c3cccc([N+](=O)[O-])c3)nnc21`, the TGI was over 100 µM.

`CNC(=O)Oc1ccc(-c2cn3cc(OC(=O)NC)ccc3n2)cc1`: the TGI is over 100 µM.

The molecule `CC(=O)N1N=C(c2ccc3ccccc3c2O)CC1C(=O)c1ccco1` (configuration not stated) returned a TGI of over 100 µM.

In turn, `N#Cc1nc(-c2cccs2)oc1N` yielded a TGI of over 100 µM.

Consider `O=c1c2c([N+](=O)[O-])cccc2nc2[nH]c3ccccc3n12`, for which the TGI is over 75 µM.

Turning to `Cc1cc(C)cc(Nc2cc(=O)[nH]c(=O)[nH]2)c1`, the TGI is over 100 µM.

Consider `O=c1[nH]/c(=C/c2ccc(OCc3ccccc3)cn2)c(=O)[nH]/c1=C/c1ccc(O)cc1`, for which the TGI was 1.45 µM.

`N#C/C(=C\n1ccc(=O)[nH]c1=S)C(N)=O` had a TGI of over 100 µM.

In the case of `Nn1c(CCCCCCCCc2nnc(COc3ccc(Cl)cc3)n2N)nnc1COc1ccc(Cl)cc1`, the TGI is over 100 µM.

`O=C(OCC1OC2OC(c3ccccc3)(n3ccc4c([N+](=O)[O-])ccnc43)OC2C1OC(=O)c1ccccc1)c1ccccc1` (configuration not stated) came in with a TGI of over 100 µM.

With `OCC1OC(n2cnc3c(Cl)nc(Nc4ccccc4)nc32)CC1O` (configuration not stated), the TGI is over 100 µM.

Molecule `CN(NC(=O)c1cccs1)C1=NCCCN1` came in with a TGI of over 100 µM.

Molecule `O=C1CCCCC(=O)OC2(CCCCC2=O)CC1` (configuration not stated) came in with a TGI of over 100 µM.

As to `CC1=NN(c2ccc(S(=O)(=O)O)cc2)C2(C1)SCC(=O)N2c1nc2ccccc2s1` (configuration not stated), the TGI was over 100 µM.

`Cc1ccc2nc(Cl)c(/C=N/N3C(=O)/C(=C/c4ccccc4S)N=C3c3ccccc3)cc2c1`: the TGI is over 100 µM.

In the case of `CCOP(=O)(OCC)c1c(C(=O)OC)cc(=O)[nH]c1-c1ccc(C)cc1`, the TGI is over 53.4 µM.

As for `Cc1cn(C2CC(n3cc(Cn4cc(Br)c(=O)[nH]c4=O)nn3)C(CO)O2)c(=O)[nH]c1=O` (configuration not stated), the TGI was over 100 µM.

In turn, `CC1Cn2c(nc3ccccc32)NC1=O` (configuration not stated) showed a TGI of over 100 µM.

In turn, `Cc1cn(C(Cc2ccccc2)OCCO)c(=O)[nH]c1=O` (configuration not stated) yielded a TGI of over 100 µM.

For another assay, the system named is NCI-H23 lung. Description: NCI anticancer screen, dose series, 48 h.
As for `CCC1(C(=O)OC(C)(C)C)OC12C(C)CCCC2C` (configuration not stated), the TGI was over 100 µM.

In turn, `Cc1ccc(-c2cc(N)n(-c3nc4c(c(=O)n(C)c(=O)n4C)n3C)n2)cc1` showed a TGI of over 100 µM.

As for `O=C(NC(Cc1ccc(I)cc1)C(=O)O)c1ccc(Br)cc1` (configuration not stated), the TGI is over 100 µM.

`CC1CCOc2ccc(cc2)C=Nc2ccc(cc2)CCc2ccc(cc2)N=Cc2ccc(cc2)OCC1` (configuration not stated) had a TGI of over 100 µM.

Regarding `COC(=O)[C@H](Cc1ccccc1)NC(=O)[C@H](Cc1ccccc1)NC(=O)[C@@H]1CCCN1C(=O)N[C@H]1C2C=CC(C2)C1C(=O)N1CCC[C@H]1C(=O)N[C@@H](C)C(=O)N[C@H](C(=O)OC)C(C)C` (some centres not stated), the TGI is over 100 µM.

In turn, `O=C1c2ccccc2-c2nc(-c3cccc([N+](=O)[O-])c3)nnc21` showed a TGI of 50.5 µM.

Turning to `CNC(=O)Oc1ccc(-c2cn3cc(OC(=O)NC)ccc3n2)cc1`, the TGI was over 100 µM.

For `CC(=O)N1N=C(c2ccc3ccccc3c2O)CC1C(=O)c1ccco1` (configuration not stated), the TGI was over 100 µM.

In turn, `N#Cc1nc(-c2cccs2)oc1N` came in with a TGI of over 100 µM.

Turning to `O=c1c2c([N+](=O)[O-])cccc2nc2[nH]c3ccccc3n12`, the TGI was over 75 µM.

`Cc1cc(C)cc(Nc2cc(=O)[nH]c(=O)[nH]2)c1`: the TGI was over 100 µM.

Regarding `O=c1[nH]/c(=C/c2ccc(OCc3ccccc3)cn2)c(=O)[nH]/c1=C/c1ccc(O)cc1`, the TGI worked out at 5.44 µM.

`N#C/C(=C\n1ccc(=O)[nH]c1=S)C(N)=O` gave a TGI of over 100 µM.

In turn, `Nn1c(CCCCCCCCc2nnc(COc3ccc(Cl)cc3)n2N)nnc1COc1ccc(Cl)cc1` had a TGI of over 100 µM.

`O=C(OCC1OC2OC(c3ccccc3)(n3ccc4c([N+](=O)[O-])ccnc43)OC2C1OC(=O)c1ccccc1)c1ccccc1` (configuration not stated) had a TGI of over 100 µM.

`Cc1[nH]c(=O)[nH]c(=O)c1/C=C/C(=O)O` returned a TGI of over 1000 µM.

Regarding `OCC1OC(n2cnc3c(Cl)nc(Nc4ccccc4)nc32)CC1O` (configuration not stated), the TGI is over 100 µM.

For `C[C@]12CCc3nc(Nc4ccccc4)sc3C1=CC[C@@H]1[C@@H]2CC[C@]2(C)/C(=N/NC(N)=S)CC[C@@H]12`, the GI50 was 6.15 µM and the TGI was over 100 µM.

`CN(NC(=O)c1cccs1)C1=NCCCN1` displayed a TGI of over 100 µM.

Turning to `O=C1CCCCC(=O)OC2(CCCCC2=O)CC1` (configuration not stated), the TGI is over 100 µM.

As to `CC1=NN(c2ccc(S(=O)(=O)O)cc2)C2(C1)SCC(=O)N2c1nc2ccccc2s1` (configuration not stated), the TGI is over 100 µM.

`Nc1ccc2[nH]c3c(-c4ccccc4)nccc3c2c1` yielded a TGI of over 100 µM.

As to `CCOP(=O)(OCC)c1c(C(=O)OC)cc(=O)[nH]c1-c1ccc(C)cc1`, the TGI was determined as 33.5 µM.

On to `COC(=O)C1=C(C(=O)OC)SC2(S1)C1=C(CCCC1)SC(C(=O)OC)=C2C(=O)OC`, for which the TGI turned out to be 31.3 µM.

The molecule `Cc1cn(C2CC(n3cc(Cn4cc(Br)c(=O)[nH]c4=O)nn3)C(CO)O2)c(=O)[nH]c1=O` (configuration not stated) displayed a TGI of over 100 µM.

`CC1Cn2c(nc3ccccc32)NC1=O` (configuration not stated) came in with a TGI of over 100 µM.

As to `Cc1cn(C(Cc2ccccc2)OCCO)c(=O)[nH]c1=O` (configuration not stated), the TGI was over 100 µM.

The next assay deals with SN12C renal. Description: NCI anticancer screen, dose series, 48 h.
Consider `CCC1(C(=O)OC(C)(C)C)OC12C(C)CCCC2C` (configuration not stated), for which the TGI is over 100 µM.

Turning to `Cc1ccc(-c2cc(N)n(-c3nc4c(c(=O)n(C)c(=O)n4C)n3C)n2)cc1`, the TGI is over 100 µM.

Regarding `O=C(NC(Cc1ccc(I)cc1)C(=O)O)c1ccc(Br)cc1` (configuration not stated), the TGI was over 100 µM.

Molecule `CC1CCOc2ccc(cc2)C=Nc2ccc(cc2)CCc2ccc(cc2)N=Cc2ccc(cc2)OCC1` (configuration not stated) gave a TGI of over 100 µM.

Consider `COC(=O)[C@H](Cc1ccccc1)NC(=O)[C@H](Cc1ccccc1)NC(=O)[C@@H]1CCCN1C(=O)N[C@H]1C2C=CC(C2)C1C(=O)N1CCC[C@H]1C(=O)N[C@@H](C)C(=O)N[C@H](C(=O)OC)C(C)C` (some centres not stated), for which the TGI is over 100 µM.
